pIC50: −log10 of the molar value.

The target in this assay is T1, JAK3 (recombinant human kinase domain; h-jak3(810-1124)) (Homo sapiens, UniProt P52333).
T1 construct: h-jak3(810- 1124)-sf9-c; made in house; host or cells: Sf9 insect cells
T1 sequence (P52333 810-1124): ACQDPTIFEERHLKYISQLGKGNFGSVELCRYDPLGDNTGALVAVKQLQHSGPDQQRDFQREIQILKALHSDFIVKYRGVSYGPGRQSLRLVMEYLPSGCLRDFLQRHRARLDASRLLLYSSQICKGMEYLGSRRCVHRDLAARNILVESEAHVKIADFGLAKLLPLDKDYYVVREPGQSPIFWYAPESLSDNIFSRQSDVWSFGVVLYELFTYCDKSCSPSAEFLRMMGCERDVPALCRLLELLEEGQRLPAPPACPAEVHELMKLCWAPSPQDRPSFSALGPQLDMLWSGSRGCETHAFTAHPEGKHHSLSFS
As to the kind of experiment: Determination of IC50 of Janus Kinase (JAK) inhibition: JAK3, radioactive end-point assay with 33P-ATP. In kind it is biochemical. The note with it: JAK3 kinase domain; ATP 1.5 uM, peptide 50 uM, 20 minutes, room temperature, 10% DMSO; read-out: Ic50 h-jak3(810-1124)-sf9-c:no additive.
`CC[C@](C)(O)[C@H](C)NC(=O)c1c[nH]c2ncc(C3CC3)nc12` [Example I-31, 2-Cyclopropyl-5H-pyrrolo[2,3-b]pyrazine-7-carboxylic acid ((1S,2S)-2-hydroxy-1,2-dimethyl-butyl)-amide]: the pIC50 is 7.40.
On to `CC(C)NC(=O)c1c[nH]c2ncc(Oc3cccc4c3CCCC4)nc12` [Example I-239, 2-(5,6,7,8-Tetrahydro-naphthalen-1-yloxy)-5H-pyrrolo[2,3-b]pyrazine-7-carboxylic acid isopropylamide], for which the pIC50 was 5.28.
With `CC(C)NC(=O)c1c[nH]c2ncc(Oc3ccc4ccccc4c3)nc12` [Example I-242, 2-(Naphthalen-2-yloxy)-5H-pyrrolo[2,3-b]pyrazine-7-carboxylic acid isopropylamide], the pIC50 is 5.93.
With `Cc1ccc([C@@H](C)NC(=O)c2ccc(-c3cnc4[nH]cc(C(=O)N[C@@H](C)C(C)(C)C)c4n3)s2)cc1` [Example I-202, 2-[5-((R)-1-p-Tolyl-ethylcarbamoyl)-thiophen-2-yl]-5H-pyrrolo[2,3-b]pyrazine-7-carboxylic acid ((S)-1,2,2-trimethyl-propyl)-amide], the pIC50 is 9.28.
Turning to `Cc1cc(C)nc(Oc2cnc3[nH]cc(C(=O)NC(C)C)c3n2)c1` [Example I-279, 2-(4,6-Dimethyl-pyridin-2-yloxy)-5H-pyrrolo[2,3-b]pyrazine-7-carboxylic acid isopropylamide], the pIC50 was 5.96.
Regarding `C[C@H](NC(=O)c1c[nH]c2ncc(C3CC3)nc12)[C@@](C)(O)CC1CC1` [Example I-38, 2-Cyclopropyl-5H-pyrrolo[2,3-b]pyrazine-7-carboxylic acid ((1S,2S)-3-cyclopropyl-2-hydroxy-1,2-dimethyl-propyl)-amide], the pIC50 is 6.94.
Take `CC(C)NC(=O)c1c[nH]c2ncc(Oc3ccc4c(c3)CCCC4)nc12` [Example I-240, 2-(5,6,7,8-Tetrahydro-naphthalen-2-yloxy)-5H-pyrrolo[2,3-b]pyrazine-7-carboxylic acid isopropylamide]: the pIC50 is 6.50.
For `COc1ccccc1Oc1cnc2[nH]cc(C(=O)NC(C)C)c2n1` [Example I-256, 2-(2-Methoxy-phenoxy)-5H-pyrrolo[2,3-b]pyrazine-7-carboxylic acid isopropylamide], the pIC50 is 6.03.
Turning to `C[C@@H](NC(=O)c1c[nH]c2ncc(C3CC3)nc12)c1ccccc1` [Example I-66, 2-Cyclopropyl-5H-pyrrolo[2,3-b]pyrazine-7-carboxylic acid ((R)-1-phenyl-ethyl)-amide], the pIC50 was 7.30.
In the case of `C[C@H](NC(=O)c1c[nH]c2ncc(C3CCCC3)nc12)C(C)(C)O` [Example I-6, 2-Cyclopentyl-5H-pyrrolo[2,3-b]pyrazine-7-carboxylic acid ((S)-2-hydroxy-1,2-dimethyl-propyl)-amide], the negative logarithm of the IC50 (pIC50) is 6.90.
The figure for `O=C(NC(CO)CO)c1c[nH]c2ncc(C3CC3)nc12` [Example I-51, 2-Cyclopropyl-5H-pyrrolo[2,3-b]pyrazine-7-carboxylic acid (2-hydroxy-1-hydroxymethyl-ethyl)-amide] is 6.38; for `C[C@H](NC(=O)c1c[nH]c2ncc(Oc3ccc(F)cc3F)nc12)C(C)(C)C` [Example I-133, 2-(2,4-Difluoro-phenoxy)-5H-pyrrolo[2,3-b]pyrazine-7-carboxylic acid ((S)-1,2,2-trimethyl-propyl)-amide] it is 6.81.
For `CC(C)NC(=O)c1c[nH]c2ncc(Oc3ccc4c(c3)[C@H](N)CC4)nc12` [Example I-281, 2-((R)-3-Amino-indan-5-yloxy)-5H-pyrrolo[2,3-b]pyrazine-7-carboxylic acid isopropylamide], the pIC50 was 6.86.
To `CC[C@H](C)NC(=O)c1c[nH]c2ncc(Oc3ccccc3)nc12` [Example I-121, 2-Phenoxy-5H-pyrrolo[2,3-b]pyrazine-7-carboxylic acid ((S)-sec-butyl)-amide] belongs 7.23; to `CC(C)NC(=O)c1c[nH]c2ncc(Oc3ccc4c(c3)[C@H](NC(=O)C(C)(C)C)CC4)nc12` [Example I-285, 2-[(R)-3-(2,2-Dimethyl-propionylamino)-indan-5-yloxy]-5H-pyrrolo[2,3-b]pyrazine-7-carboxylic acid isopropylamide], 6.63; to `C[C@H](NC(=O)c1c[nH]c2ncc(-c3ccc(C(=O)N4CCC(C(=O)O)CC4)s3)nc12)C(C)(C)C` [Example I-182, 1-{5-[7-((S)-1,2,2-Trimethyl-propylcarbamoyl)-5H-pyrrolo[2,3-b]pyrazin-2-yl]-thiophene-2-carbonyl}-piperidine-4-carboxylic acid], 9.49.
Turning to `CC(C)NC(=O)c1c[nH]c2ncc(Oc3ccccc3OC(F)(F)F)nc12` [Example I-253, 2-(2-Trifluoromethoxy-phenoxy)-5H-pyrrolo[2,3-b]pyrazine-7-carboxylic acid isopropylamide], the pIC50 was 5.66.
Consider `C[C@H](NC(=O)c1c[nH]c2ncc(C3CC3)nc12)C1CCCCC1` [Example I-32, 2-Cyclopropyl-5H-pyrrolo[2,3-b]pyrazine-7-carboxylic acid ((S)-1-cyclohexyl-ethyl)-amide], for which the pIC50 was 7.70.
As for `CC(C)NC(=O)c1c[nH]c2ncc(Oc3ccccc3C(F)(F)F)nc12` [Example I-236, 2-(2-Trifluoromethyl-phenoxy)-5H-pyrrolo[2,3-b]pyrazine-7-carboxylic acid isopropylamide], the pIC50 was 5.53.
In the case of `Cc1ccc(F)c(-n2cnc(-c3cnc4[nH]cc(C(=O)N[C@@H](C)C(C)(C)C)c4n3)c2)c1` [Example I-148, 2-[1-(2-Fluoro-5-methyl-phenyl)-1H-imidazol-4-yl]-5H-pyrrolo[2,3-b]pyrazine-7-carboxylic acid ((S)-1,2,2-trimethyl-propyl)-amide], the pIC50 is 8.49.
`CONC(=O)c1ccc(-c2cnc3[nH]cc(C(=O)N[C@@H](C)C(C)(C)C)c3n2)s1` [Example I-197, 2-(5-Methoxy-carbamoyl-thiophen-2-yl)-5H-pyrrolo[2,3-b]pyrazine-7-carboxylic acid ((S)-1,2,2-trimethyl-propyl)-amide]: the pIC50 was 9.49.
Turning to `CCNC(=O)c1c[nH]c2ncc(Oc3ccc4c(c3)[C@H](NC(C)=O)CC4)nc12` [Example I-271, 2-((R)-3-Acetylamino-indan-5-yloxy)-5H-pyrrolo[2,3-b]pyrazine-7-carboxylic acid ethylamide], the pIC50 is 5.90.
Regarding `C[C@@H](NC(=O)c1c[nH]c2ncc(C3CC3)nc12)C(C)(C)C` [Example I-62, 2-Cyclopropyl-5H-pyrrolo[2,3-b]pyrazine-7-carboxylic acid ((R)-1,2,2-trimethyl-propyl)-amide], the negative logarithm of the IC50 (pIC50) was 8.13.
Regarding `CC(C)(O)[C@@H](NC(=O)c1c[nH]c2ncc(C3CC3)nc12)C1CC1` [Example I-73, 2-Cyclopropyl-5H-pyrrolo[2,3-b]pyrazine-7-carboxylic acid ((S)-1-cyclopropyl-2-hydroxy-2-methyl-propyl)-amide], the negative-log IC50 (pIC50) was 7.03.
To `CC(C)(CO)CNC(=O)c1c[nH]c2ncc(N3CCCC3)nc12` [Example I-10, 2-Pyrrolidin-1-yl-5H-pyrrolo[2,3-b]pyrazine-7-carboxylic acid (3-hydroxy-2,2-dimethyl-propyl)-amide] belongs 7.46.
As for `O=C(NC(C1CC1)C1CC1)c1c[nH]c2ncc(C3CC3)nc12` [Example I-80, 2-Cyclopropyl-5H-pyrrolo[2,3-b]pyrazine-7-carboxylic acid dicyclopropyl-methyl-amide], the pIC50 was 8.41.
Turning to `CC(=O)N1CCC(CNC(=O)c2c[nH]c3ncc(C4CC4)nc23)C1` (stereo not shown) [Example I-137, 2-Cyclopropyl-5H-pyrrolo[2,3-b]pyrazine-7-carboxylic acid (1-acetyl-pyrrolidin-3-ylmethyl)-amide], the pIC50 was 6.46.
Consider `CC(Cc1ccccn1)NC(=O)c1ccc(-c2cnc3[nH]cc(C(=O)N[C@@H](C)C(C)(C)C)c3n2)s1` (stereo partly drawn) [Example I-176, 2-[5-(1-Methyl-2-pyridin-2-yl-ethylcarbamoyl)-thiophen-2-yl]-5H-pyrrolo[2,3-b]pyrazine-7-carboxylic acid ((S)-1,2,2-trimethyl-propyl)-amide], for which the pIC50 was 9.34.
Regarding `C[C@H](NC(=O)c1c[nH]c2ncc(-c3ccc(C(=O)NC4CCOCC4)s3)nc12)C(C)(C)C#N` [Example I-223, 2-[5-(Tetrahydro-pyran-4-ylcarbamoyl)-thiophen-2-yl]-5H-pyrrolo[2,3-b]pyrazine-7-carboxylic acid ((S)-2-cyano-1,2,2-trimethyl-ethyl)-amide], the pIC50 is 9.04.
`O=C(N[C@@H](CC1CCCCC1)[C@@H](O)[C@@H](O)C1CC1)c1c[nH]c2ncc(C3CC3)nc12` [Example I-88, 2-Cyclopropyl-5H-pyrrolo[2,3-b]pyrazine-7-carboxylic acid ((1S,2R,3S)-1-cyclohexylmethyl-3-cyclopropyl-2,3-dihydroxy-propyl)-amide]: the pIC50 is 5.85.
The figure for `CCNC(=O)c1c[nH]c2ncc(Oc3ccccc3C)nc12` [Example I-257, 2-o-Tolyloxy-5H-pyrrolo[2,3-b]pyrazine-7-carboxylic acid ethylamide] is 5.56.
As to `N#CC[C@@H](NC(=O)c1c[nH]c2ncc(C3CC3)nc12)C1CC1` [Example I-135, 2-Cyclopropyl-5H-pyrrolo[2,3-b]pyrazine-7-carboxylic acid ((R)-2-cyano-1-cyclopropyl-ethyl)-amide], the pIC50 is 7.69.
Consider `CCNC(=O)c1c[nH]c2ncc(Oc3cccc(C(C)(C)C)c3)nc12` [Example I-247, 2-(3-tert-Butyl-phenoxy)-5H-pyrrolo[2,3-b]pyrazine-7-carboxylic acid ethylamide], for which the pIC50 is 5.19.
Consider `CCNC(=O)c1c[nH]c2ncc(Oc3cccc(C(C)C)c3)nc12` [Example I-250, 2-(3-Isopropyl-phenoxy)-5H-pyrrolo[2,3-b]pyrazine-7-carboxylic acid ethylamide], for which the pIC50 was 5.34.

Broadly, the pIC50 is −log10 of the IC50, conventionally taken in molar units.

Source of the values: patent US20140155376A1, “PYRROLOPYRAZINE KINASE INHIBITORS” (Hoffmann-La Roche Inc., priority 2010, published 2014).
